In patent publication US20090175981A1, “COMPOSITIONS, METHODS AND USES FOR A NOVEL FAMILY OF PEPTIDES” (priority 2004, published 2009):
Several values for one entry are separate records, joined by “and”; a condition that tells them apart may be missing. Identical values can stand only once. Marks after values point to notes of the source that are not given here.

Columns and labels:
Staphylococcal aureus = assay: MIC determination assay / antibiotic activity of synthetic BT variants; assay type: cell-based; conditions: FIG. 6B
Procedure: (§1) MIC determination assays. Staphylococcal aureus was grown to mid-log phase in LB at 37° C., and diluted by 500-fold with fresh LB and dispensed into 96-well micro-titer plates. Different concentrations of peptides were added, and the micro-titer plates were incubated at 37° C. with shaking. A minimal inhibition concentration (MIC) was determined as the lowest peptide concentration that produced a clear well. All experiments were performed in triplicates, and highly consistent MICs were obtained.

Gram-positive bacteria = assay: In vitro antibacterial MIC, Gram-positive bacteria; assay type: cell-based; conditions: most Gram (+)
Procedure: as §1
(§2) For Gram (−) the following were the antimicrobial activities observed: E. coli: MIC>20 microgram/ml; Pseudomonas and Salmonella: MIC>100 microgram/ml.

E. coli = assay: In vitro antimicrobial MIC, E. coli; assay type: cell-based
Procedure: as §1, §2

Pseudomonas = assay: In vitro antimicrobial MIC, Pseudomonas; assay type: cell-based
Procedure: as §1, §2

Salmonella = assay: In vitro antimicrobial MIC, Salmonella; assay type: cell-based
Procedure: as §1, §2

S. cerevisiae = assay: In vitro antifungal MIC; assay type: cell-based
Tetrahymena = assay: In vitro anti-protozoal MIC; assay type: cell-based
[1] = assay type: physicochemical; conditions: pH 1.0 plus 100° C. overnight
Broiler Chicken [2] = assay: Growth promoting battery Studies 1-1 and 1-2; assay type: in vivo
straight run broilers [3] = assay: Growth and feed conversion of 20-day old broilers in batteries, mash feed (Studies 2-1 and 2-2); assay type: in vivo, chicken
Procedure: Briefly, the peptide was used in a semi-purified form to study the growth and feed conversion of […] old straight run broilers in batteries (Studies 2-1 and 2-2). Two amounts were tested against a feed control, peptide at 6 ppm and peptide at 12 ppm, 12 repetitions were carried out per treatment with 4 birds per pen. The diet used in the study was as follows.

straight run broilers [4] = assay: Growth and feed conversion of 3-wk old broilers in batteries, pelleted starter feed (Studies 3-1 and 3-2); assay type: in vivo, chicken
Source text: Eight (8) study repetitions per treatment were used, again with 4 birds per pen.

Broiler Chicken [5] = assay: Growth promoting Studies 4-1 and 4-2 with direct coccidial challenge; assay type: in vivo
broiler chickens = assay: 42-day broiler floor pen trial with natural colibacillosis challenge; assay type: in vivo, chicken
Procedure: A broiler floor pen trial to compare the performance of a new anti-microbial designated for this project as BT1583 alone and in combination with the widely used coccidiostat monensin (MON) to MON fed alone, MON in combination with the also widely used antimicrobial Bacitracin MD (BMD) and BMD alone.
The following levels of each treatment were evaluated:
The study design included 10 pens per treatment and 40 birds per pen housed on day of hatch. Two basal corn-soy based diets of decreasing protein (approximately 23 to 20%) and increasing metabolizable energy (approximately 1400 to 1455 kcal/lb) were used from Day 0 to 21 (starter feed) and Days 22 to 42 (grower feed), respectively. Treatment premixes were measured and blended into diets at required levels. Between days 0 and 21 mortality was less than 1% with all birds growing optimally and of high health across all groups.
Beginning on study day 22, the study director modulated house temperature and air flow to mimic industry conditions conducive to outbreaks of colibacillosis within naïve broiler flocks. This was done to stimulate a natural challenge for this study. Mortality climbed to a house average of approximately 10% by Day 42. A majority of these deaths occurred in groups not receiving BT1583 or MON. Lesions were consistent with those of colibacillosis (air sac, pneumonia, peri-hepatitis, peri-carditis and extreme morbidity). All mortality was documented (weight at death and post-mortem observations). All birds and feeds were weighed at 42 days. All remaining birds were euthanized on Day 42 by asphyxiation with the carcasses submitted for rendering.
The following variables were tested: Response Variables: Gain Per Bird, Feed Per Gain, Mortality (%), Adjusted Feed Per Gain. F test from One Way ANOVA with one blocking factor=location, at Day 42 using 0.05 level of significance.
All Response Variables: LSD T-test procedure for pair-wise comparisons with Type 1 error of means when ANOVA F ratio is significant, overall significance level of 0.05 used. Lines below means (see Table 30, below) indicate groups with insignificant differences in means.
Adjusted Feed/Gain: The total weight of mortality in each pen was added to the final live weight, that value reduced by subtracting the initial weight and then dividing that value into the Total feed consumed to calculate the Adjusted Feed/Gain.

food-producing animals = assay: Growth promotion in food-producing animals (overall statement); assay type: in vivo, chicken; conditions: used to promote growth
Source text: Alternatively, but in no way limiting the present invention, the present invention may be used as an animal-use only antibiotic for bacterial infections.

carboxypeptidase Y = biological target: T1, carboxypeptidase Y (Saccharomyces cerevisiae, UniProt P00729)
T1 sequence (P00729 112-532): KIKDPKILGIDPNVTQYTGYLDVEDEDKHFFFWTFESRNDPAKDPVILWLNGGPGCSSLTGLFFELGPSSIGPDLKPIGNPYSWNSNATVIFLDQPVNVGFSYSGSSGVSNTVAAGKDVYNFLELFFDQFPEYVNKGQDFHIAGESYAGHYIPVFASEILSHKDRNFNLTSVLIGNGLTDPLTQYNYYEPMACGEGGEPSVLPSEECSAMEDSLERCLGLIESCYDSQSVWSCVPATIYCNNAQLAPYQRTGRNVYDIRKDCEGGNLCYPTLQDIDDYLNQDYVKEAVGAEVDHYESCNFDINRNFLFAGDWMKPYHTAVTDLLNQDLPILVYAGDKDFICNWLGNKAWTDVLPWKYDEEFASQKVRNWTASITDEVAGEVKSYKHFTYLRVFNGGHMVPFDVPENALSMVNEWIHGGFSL

[6] = BT1583 12 ppm, BMD 50 ppm, COB 90 ppm, alone or combined, pelleted feed
[7] = Study 4-1, 24 ppm with direct coccidial challenge
[8] = Study 4-2, 48 ppm with direct coccidial challenge
[9] = MON 99 ppm, BT1583 12 ppm, BMD 55 ppm, alone or combined

## Me2Bmt-L-dO-I-V-V-dK-V-dL-K-dY-L-V-CH2OH [BT1583]
Staphylococcal aureus
  antibiotic activity: full antibiotic activity
Gram-positive bacteria
  MIC: 1 microgram/ml
E. coli
  MIC: > 20 microgram/ml
Pseudomonas
  MIC: > 100 microgram/ml
Salmonella
  MIC: > 100 microgram/ml
S. cerevisiae
  MIC: 50 microgram/ml
Tetrahymena
  MIC: 25 microgram/ml
[1]
  in vitro inactivation: only known in vitro method to inactivate it is pH 1.0 plus 100 °C overnight
Broiler Chicken [2]; Study 1-1, 10 ppm
  Additional weight gain (%): 17%
  Feed conversion improvement (point): 7 point
Broiler Chicken [2]; Study 1-2, 30 ppm
  Additional weight gain (%): 17%
  Feed conversion improvement (point): 8 point
Straight run broilers [3]; 6 ppm in mash feed
  20-day cumulative feed conversion rate, Mean: 1.5065 and 1.506
  20-day cumulative weight gain, Mean: 591.975
Straight run broilers [3]; 12 ppm in mash feed
  20-day cumulative feed conversion rate, Mean: 1.4959 and 1.496
  20-day cumulative weight gain, Mean: 618.934
Straight run broilers [3]; Study 2-1, 6 ppm
  Additional weight gain (%): 6.7%
  Feed conversion improvement (point): 9 point
Straight run broilers [3]; Study 2-2, 12 ppm
  Additional weight gain (%): 11%
  Feed conversion improvement (point): 10 point
Straight run broilers [4]; [6]
  20-day cumulative feed conversion rate, Mean: 1.3308
  21-day cumulative feed conversion rate, Estimated Marginal Mean: 1.331
  21-day cumulative weight gain, Mean: 831.7396 and 831.740
Straight run broilers [4]; Study 3-1, 12 ppm
  Additional weight gain (%): 16%
  Feed conversion improvement (point): 9 point
Straight run broilers [4]; Study 3-2, 12 ppm with Coban
  Additional weight gain (%): 5.4%
Straight run broilers [4]; Study 3-2, 12 ppm with Coban (vs Coban alone)
  Feed conversion improvement (point): 9 point
Broiler Chicken [5]; [7]
  Additional weight gain (%): 7.1%
  Feed conversion improvement (point): 13 point
Broiler Chicken [5]; [8]
  Additional weight gain (%): 9.3%
  Feed conversion improvement (point): 17 point
Broiler chickens; 3 to 4 week old naïve broiler chickens, simulated commercial conditions
  efficacy against colibacillosis: highly effective
Broiler chickens; Day 42
  feed/gain advantage over monensin and BMD fed alone and in combination: ≥ 10 point
  weight gain advantage over monensin and BMD fed alone and in combination: ≥ 20 point
Broiler chickens; [9]
  Day 42 Feed/Gain: 1.722^ab
  Day 42 Gain/Bird: 4.333^ab lb
Broiler chickens; acute and chronic colibacillosis, MON 99 ppm, BT1583 12 ppm, BMD 55 ppm
  Day 42 Mortality (%): 2.75^a %
Broiler chickens; adjusted for weight of mortality, MON 99 ppm, BT1583 12 ppm, BMD 55 ppm
  Day 42 Adjusted Feed/Gain: 1.704^ab
Broiler chickens; alone or in combination
  mortality rate compared with non-supplemented controls: lower mortality rates
food-producing animals
  feed conversion gain: about 10 points
Carboxypeptidase Y
  cleavage by carboxypeptidase Y: resistant
